Measurements published in article PMC10609273, “Radiosynthesis and Early Evaluation of a Positron Emission Tomography Imaging Probe [^18F]AGAL Targeting Alpha-Galactosidase A Enzyme for Fabry Disease” (Molecules, 2023).

Legend:
[1] = LogD determination, miniaturized shake flask method; assay type: physicochemical; details: octanol/buffer (1:1); octanol/buffer pH 7.4 (1:1), 66.6 μM
Experimental: The distribution of AGAL between an organic solvent (octanol) and aqueous buffer (pH 7.4) was tested using the miniaturized shake flask method in octanol/buffer (1:1). This was accomplished by spiking the test compound (prepared in DMSO) into pre-equilibrated octanol/buffer phases at a concentration of 66.6 μM followed by shaking at 880 rpm for 1 h. The concentration of the test compound in both phases was analyzed using LC–MS/MS.

[2] = Plasma stability study, mouse; assay type: in vitro ADME
Experimental: Briefly, plasma stability was assessed by incubating compounds in the presence of human (pooled) and mouse (pooled) plasma (Bioreclamation, Westbury, NY, USA). All chemicals and reagents including control compounds were purchased from commercial sources such as Sigma-Aldrich or Toronto Research Chemicals. Plasma incubations were conducted by placing plasma (95 μL) in a 96-well microtiter plate and warming to 37 °C for 5 min. The reaction was initiated with the addition of the test article (5 μL of 20 μM), totaling 100 μL in incubation volume. At 0, 15, 30, 60, and 120 min time points, the reactions were terminated with the addition of acetonitrile-containing carbutamide (as an internal standard). The terminated samples were then centrifuged at 2 °C to pellet the protein, and the supernatant was injected onto an LC–MS. The test article was monitored for loss over time and the t1/2 was determined.

[3] = biological target: T1, CYP2C8 (Homo sapiens, UniProt P10632); assay: Reversible CYP inhibition in pooled HLMs; assay type: in vitro ADME; details: 30 µM compound, substrate amodiaquine
T1 construct: from tissue; host or cells: pooled human liver microsomes (n = 200)
T1 sequence (P10632 1-490): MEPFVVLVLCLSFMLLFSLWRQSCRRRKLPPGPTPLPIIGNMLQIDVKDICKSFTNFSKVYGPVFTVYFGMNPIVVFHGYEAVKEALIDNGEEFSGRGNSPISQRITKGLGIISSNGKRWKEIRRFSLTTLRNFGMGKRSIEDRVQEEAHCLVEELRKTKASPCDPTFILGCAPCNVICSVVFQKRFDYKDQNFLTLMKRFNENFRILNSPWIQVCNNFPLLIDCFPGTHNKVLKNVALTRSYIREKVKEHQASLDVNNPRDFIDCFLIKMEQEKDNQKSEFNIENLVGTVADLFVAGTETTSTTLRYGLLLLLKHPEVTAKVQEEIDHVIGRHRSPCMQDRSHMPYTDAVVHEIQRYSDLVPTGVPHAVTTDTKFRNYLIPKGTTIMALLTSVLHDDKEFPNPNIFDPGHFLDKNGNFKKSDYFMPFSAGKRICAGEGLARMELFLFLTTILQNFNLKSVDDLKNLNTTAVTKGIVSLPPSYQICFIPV
Experimental: (§1) All chemicals and reagents including control compounds were purchased from commercial sources such as Sigma-Aldrich or Toronto Research Chemicals. The test article was tested for reversible inhibition of CYPs in human liver microsomes (HLM) (0.2 mg/mL protein) at a concentration range of 0–30 μM. Each condition was incubated in duplicate. The test article (0–30 μM), NADPH, and the CYP-selective probe substrate were incubated in a 96-well plate at 37 °C in 0.1 M potassium phosphate buffer, pH 7.4. The reactions were initiated by adding the HLMs. The total reaction volume was 100 μL.
(§2) After the incubation period (10 min for CYP1A2, 2B6, and 2C9; 15 min for CYP2C19; and 4 min for CYP2C8 and 2D6 to accommodate linear kinetic conditions) at 37 °C, the reactions were terminated by the addition of 100 μL of ice-cold acetonitrile-containing carbutamide as an IS, then centrifuged at 2500× g for 10 min at 2 °C. A 150 μL aliquot of supernatant for each CYP assay, except for CYP1A2, was then transferred to a new plate for analysis. For CYP1A2, 80 μL of supernatant was transferred to the plate and further diluted with 80 μL of water before analysis. All samples were analyzed with liquid chromatography with tandem mass spectrometry (LC–MS/MS).

[4] = biological target: T2, CYP2D6 (Homo sapiens, UniProt P10635); assay: Reversible CYP inhibition in pooled HLMs; assay type: in vitro ADME; details: 30 µM compound, substrate dextromethorphan
T2 construct: from tissue; host or cells: pooled human liver microsomes (n = 200)
T2 sequence (P10635 whole entry): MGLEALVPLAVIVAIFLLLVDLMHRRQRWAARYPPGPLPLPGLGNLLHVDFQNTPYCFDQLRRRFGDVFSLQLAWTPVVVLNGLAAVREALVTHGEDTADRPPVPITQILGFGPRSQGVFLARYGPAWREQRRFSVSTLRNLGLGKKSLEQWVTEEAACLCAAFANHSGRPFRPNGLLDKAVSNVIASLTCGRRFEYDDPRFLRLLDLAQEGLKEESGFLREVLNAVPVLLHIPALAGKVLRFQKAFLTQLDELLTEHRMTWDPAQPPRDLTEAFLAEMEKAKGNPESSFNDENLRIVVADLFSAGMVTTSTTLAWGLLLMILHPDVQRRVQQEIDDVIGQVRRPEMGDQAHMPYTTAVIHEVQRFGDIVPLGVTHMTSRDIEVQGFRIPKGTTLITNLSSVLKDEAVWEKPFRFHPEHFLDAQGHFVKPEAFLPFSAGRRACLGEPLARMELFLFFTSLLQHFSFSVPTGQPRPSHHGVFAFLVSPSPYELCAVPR
Experimental: as §1, §2

[5] = biological target: T3, CYP2C9 (Homo sapiens, UniProt P11712); assay: Reversible CYP inhibition in pooled HLMs; assay type: in vitro ADME; details: 30 µM compound, substrate diclofenac
T3 construct: from tissue; host or cells: pooled human liver microsomes (n = 200)
T3 sequence (P11712 whole entry): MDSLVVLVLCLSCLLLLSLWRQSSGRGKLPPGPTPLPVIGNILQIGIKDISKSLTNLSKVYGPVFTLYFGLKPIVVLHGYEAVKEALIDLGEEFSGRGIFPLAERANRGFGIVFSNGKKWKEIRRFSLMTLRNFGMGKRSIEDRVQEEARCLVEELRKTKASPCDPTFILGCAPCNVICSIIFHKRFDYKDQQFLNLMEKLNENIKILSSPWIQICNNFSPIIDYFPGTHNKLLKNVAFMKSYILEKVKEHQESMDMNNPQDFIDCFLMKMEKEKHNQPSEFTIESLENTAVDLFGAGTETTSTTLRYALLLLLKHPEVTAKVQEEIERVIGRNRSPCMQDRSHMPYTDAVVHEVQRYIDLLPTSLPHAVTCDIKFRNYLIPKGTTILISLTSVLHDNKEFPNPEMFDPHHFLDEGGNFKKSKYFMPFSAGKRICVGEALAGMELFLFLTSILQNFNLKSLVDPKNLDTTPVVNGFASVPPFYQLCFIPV
Experimental: as §1, §2

[6] = biological target: T4, CYP2B6 (Homo sapiens, UniProt P20813); assay: Reversible CYP inhibition in pooled HLMs; assay type: in vitro ADME; details: 30 µM compound, substrate bupropion
T4 construct: from tissue; host or cells: pooled human liver microsomes (n = 200)
T4 sequence (P20813 1-491): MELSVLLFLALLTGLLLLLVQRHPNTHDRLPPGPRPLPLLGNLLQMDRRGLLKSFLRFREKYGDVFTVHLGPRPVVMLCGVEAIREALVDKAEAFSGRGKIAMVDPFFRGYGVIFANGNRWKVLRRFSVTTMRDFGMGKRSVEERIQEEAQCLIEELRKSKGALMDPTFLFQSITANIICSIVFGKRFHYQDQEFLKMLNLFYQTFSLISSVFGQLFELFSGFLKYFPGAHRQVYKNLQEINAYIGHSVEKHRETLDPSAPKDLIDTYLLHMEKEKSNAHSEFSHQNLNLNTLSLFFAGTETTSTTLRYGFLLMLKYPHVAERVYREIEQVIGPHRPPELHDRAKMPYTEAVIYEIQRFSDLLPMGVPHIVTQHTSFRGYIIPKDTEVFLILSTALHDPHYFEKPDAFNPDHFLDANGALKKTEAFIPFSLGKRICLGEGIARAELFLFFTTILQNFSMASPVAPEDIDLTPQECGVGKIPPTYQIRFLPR
Experimental: as §1, §2

[7] = biological target: T5, CYP2C19 (Homo sapiens, UniProt P33261); assay: Reversible CYP inhibition in pooled HLMs; assay type: in vitro ADME; details: 30 µM compound, substrate S-mephenytoin
T5 construct: from tissue; host or cells: pooled human liver microsomes (n = 200)
T5 sequence (P33261 whole entry): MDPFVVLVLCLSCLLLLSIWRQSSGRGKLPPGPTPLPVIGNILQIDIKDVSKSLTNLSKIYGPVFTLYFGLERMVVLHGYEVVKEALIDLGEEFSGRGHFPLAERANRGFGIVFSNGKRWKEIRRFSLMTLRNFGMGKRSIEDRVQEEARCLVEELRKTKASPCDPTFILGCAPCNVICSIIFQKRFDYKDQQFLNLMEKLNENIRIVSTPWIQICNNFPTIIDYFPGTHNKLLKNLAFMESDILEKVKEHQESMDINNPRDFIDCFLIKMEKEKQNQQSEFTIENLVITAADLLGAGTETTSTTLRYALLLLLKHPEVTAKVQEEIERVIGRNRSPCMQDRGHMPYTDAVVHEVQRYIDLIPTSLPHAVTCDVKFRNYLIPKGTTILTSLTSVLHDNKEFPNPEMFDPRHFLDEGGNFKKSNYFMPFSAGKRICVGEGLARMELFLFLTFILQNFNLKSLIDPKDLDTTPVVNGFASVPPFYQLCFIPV
Experimental: as §1, §2

Structure (SMILES): O=C(CCCCCCCn1cc(CCCF)nn1)N1[C@@H]2[C@H](O)[C@@H](O)[C@@H](O)[C@@H](CO)[C@@H]21 [AGAL]
- logD at 1 h [1]: -0.43
- Plasma Half-Life, t1/2 ([2]; 37 °C): 9.83 min
- parent remaining ([2]; 30 min post-incubation): 18%
- half-life at 1 µM ([2]; mouse, pooled plasma, 37 °C, read-out: Plasma Half-Life, t1/2): < 10 min
- reversible inhibition of CYP2C8 activity [3]: no significant loss of CYP activity
- reversible inhibition of CYP2D6 activity [4]: no significant loss of CYP activity
- reversible inhibition of CYP2C9 activity [5]: no significant loss of CYP activity
- reversible inhibition of CYP2B6 activity [6]: no significant loss of CYP activity
- reversible inhibition of CYP2C19 activity [7]: no significant loss of CYP activity
